Drawing on ChEMBL document CHEMBL1134333, “[3H]N-2-(4-(N-benzamido)phenyl)propyl-2-propanesulfonamide: a novel AMPA receptor potentiator and radioligand” (J Med Chem, 2001), this text covers EC50 and IC50 for two compounds.

Broadly, the EC50 is the concentration giving half of the maximal effect. The IC50 is the concentration needed to halve the response being measured.

For assay [1], the target named is T1, Glutamate receptor ionotropic, AMPA (Rattus norvegicus, UniProt P19490+P19491+P19492+P19493). Put plainly: Effective concentration of AMPA required to increase specific binding of [3H]6 to rat cerebral cortical membranes.
Assay [2] concerns the target T1, Glutamate receptor ionotropic, AMPA. Put plainly: Effective concentration of glutamate required to increase specific binding of [3H]6 to rat cerebral cortical membranes.
For assay [3] the target is unchanged. Put plainly: Inhibition of binding to AMPA receptor from rat cerebral cortex. Format: tissue-based.

As to `CC(CNS(=O)(=O)C(C)C)c1ccc(NC(=O)c2ccccc2)cc1` (centres undefined), the concentration giving a half-maximal response (EC50) in assay [1] was found to be 5.5 µM; in assay [2], 31 µM. This compound had an IC50 in assay [3] of 0.17 µM.
`NS(=O)(=O)c1cc2c(cc1Cl)NC(C1CC3C=CC1C3)NS2(=O)=O` (centres undefined) [CYCLOTHIAZIDE] yielded an IC50 in assay [3] of 6.1 µM.
